Data as given in patent US4647586A, “Pharmaceutical oil-in-water type micro-emulsion” (priority 1984, dated 1987).
Entries after “also recorded” stand apart in the source; their conditions may differ.

Columns and labels:
[1] = tested on: Adjuvant-induced polyarthritis; test: Adjuvant-induced polyarthritis in rats, adjuvant-injected paw [Test 2]; format: in vivo, SD-strain female rats
Protocol: (a) Experimental animals: SD-strain famale rats 140-180g).
(b) Test drugs: The same as in A-1 [Test 2].
Rats were anesthetized with ether inhalation, and 0.6 mg of Mycobacterium butyricum suspended in 0.1 ml of white paraffin oil was immediately injected intradermally into the planter surface of the left hind paw of each rat via a 27 gauge needle fitted to a 0.5 ml syringe (day 0). On the 14th day after the adjuvant injection, arthritis-established rats selected by development of secondary lesions were used. Volumes of both hind paws in arthritis-established rats were measured by a plethysmometer (UGO BASILE), and the rats were randomized on the basis of the edema volume in the adjuvant-injected paw. Once daily, beginning on the 14th day up to the 18th day, drugs and vehicles were administered intravenously. Measurements of both paw volumes were performed every day from the 15th day up to the 18th day, and on the 21st day and the 24th day. The inhibition percent were calculated in accordance with the calculation formula as in [Test 1] of A-1.

[2] = tested on: Carrageenin-induced paw edema; test: Carrageenin-induced paw edema in rats [Test 2]; format: in vivo, SD-strain male rats
Protocol: (a) Experimental animals: SD-strain male rats (120-180 g).
A micro-emulsion containing ethyl 4-biphenylylacetate prepared as in Examples 11, 12, 13 and 14 given hereinafter was administered at a dose of 5 ml per kg of the animals. Venolipid® (Morishita Pharmaceutical Co., Ltd.) was used as a vehicle control. As control drugs, a solution or suspension of ethyl 4-biphenylylacetate in physiological saline containing 0.5% Cremophor EL® (Sigma Chemical Company, a solubilizing agent), 0.2% of polyethylene glycol 400 and 10% of dimethyl sulfoxide, a physiological saline solution of sodium 4-biphenylylacetate and a physiological saline solution of Aspirin DL-lysine [Venopirin®, Green Cross Co.] were used. As the vehicle control of the control drugs, the above solvents were used.
A 1% carrageenin solution in physiological saline was injected subcutaneously in an amount of 0.05 ml into the planter surface of the left hind paw of each rat via a 25 gauge needle fitted to a 0.25 ml syringe. One hour after carrageenin injection, the rats were randomized on the basis of the edema volume, and intravenous administration of the drugs and vehicles followed immediately. The volume of the left hind paw was measured by a plethysmometer (Ugo Basile) prior to the injection of the carrageenin solution and at 2, 3, 4, 5 and 6 hours after the carrageenin injection. As the volume of edema, an increase in the paw volume was taken.
The inhibition percents were calculated in accordance with the same calculation formula as in Test 1.

[3] = tested on: Charles River-strain SD male rats; test: Toxicity test, single tail vein administration, 3 days observation; format: in vivo
Protocol: (§1) Charles River-strain SD male rats (6 weeks old; body weight 160-170 g), 5 per group, were used. […] The doses were 50, 100, 200 and 400 mg/kg. As a control, an aqueous solution of sodium 4-biphenylylacetate was administered.

[4] = as above; format: in vivo, Charles River-strain SD male rats; conditions: rat, in vivo, iv; read-out: Doses with no change in general symptoms and autopsy
Protocol: as §1

[5] = tested on: Carrageenin-induced paw edema; test: Carrageenin-induced paw edema in rats [Test 1]; format: in vivo, Wistar strain male rats
Protocol: A-1: Effect of inhibiting carrageenin-induced paw edema
(a) Experimental animals: Wistar strain male rats (body weight 160-220 g), 7 per group.
As a control drug, an aqueous solution of sodium 4-biphenylylacetate was used.
The volume of the left hind paw of each rat was measured with a plethysmometer (supplied by Ugo Basile Company). A 1% carrageenin solution as an inflammation inducer was injected subcutaneously into the left hind paw of each rat to induce paw edema. The volume of the paw of the rat was measured before the administration of carrageenin and every hour after the administration up to 6 hours. […] The test drugs were intravenously administered 2 hours after the injection of carrageenin. The edema inhibition rate were calculated by the following equation. [formula]
Ec: the volume of edema of the control group to which only the solvent was administered at each time (average value)
Et: the volume of edema in the drug-administered group at each time (average value)

With O=C([O-])Cc1ccc(-c2ccccc2)cc1.[Na+] the “Inhibition (%)” value ([1]; 1.25 mg/kg/day i.v. as 4-biphenylylacetic acid, day 15) was -1.8%, the “Inhibition (%)” value ([1]; 1.25 mg/kg/day i.v. as 4-biphenylylacetic acid, day 16) was 1.2% and the “Inhibition (%)” value ([1]; 1.25 mg/kg/day i.v. as 4-biphenylylacetic acid, day 17) was 7.9%. The “Inhibition (%)” value ([1]; 1.25 mg/kg/day i.v. as 4-biphenylylacetic acid, day 18) was 3.9%, the “Inhibition (%)” value ([1]; 1.25 mg/kg/day i.v. as 4-biphenylylacetic acid, day 21) was -7.5% and the “Inhibition (%)” value ([1]; 1.25 mg/kg/day i.v. as 4-biphenylylacetic acid, day 24) was -14.1%. For the same molecule, the “Inhibition (%)” value ([1]; 2.5 mg/kg/day i.v. as 4-biphenylylacetic acid, day 15) was -4.2%, the “Inhibition (%)” value ([1]; 2.5 mg/kg/day i.v. as 4-biphenylylacetic acid, day 16) was 1.5% and the “Inhibition (%)” value ([1]; 2.5 mg/kg/day i.v. as 4-biphenylylacetic acid, day 17) was 1.9%. For the same molecule, the “Inhibition (%)” value ([1]; 2.5 mg/kg/day i.v. as 4-biphenylylacetic acid, day 18) was -3.9%, the “Inhibition (%)” value ([1]; 2.5 mg/kg/day i.v. as 4-biphenylylacetic acid, day 21) was -15.7% and the “Inhibition (%)” value ([1]; 2.5 mg/kg/day i.v. as 4-biphenylylacetic acid, day 24) was -29.7%. The “Inhibition (%)” value ([1]; 5.0 mg/kg/day i.v. as 4-biphenylylacetic acid, day 15) was 7.3%, the “Inhibition (%)” value ([1]; 5.0 mg/kg/day i.v. as 4-biphenylylacetic acid, day 16) was 12.9% and the “Inhibition (%)” value ([1]; 5.0 mg/kg/day i.v. as 4-biphenylylacetic acid, day 17) was 17.9%. The “Inhibition (%)” value ([1]; 5.0 mg/kg/day i.v. as 4-biphenylylacetic acid, day 18) was 15.6%, the “Inhibition (%)” value ([1]; 5.0 mg/kg/day i.v. as 4-biphenylylacetic acid, day 21) was 9.2% and the “Inhibition (%)” value ([1]; 5.0 mg/kg/day i.v. as 4-biphenylylacetic acid, day 24) was 2.8%. For the same molecule, the “Inhibition (%)” value ([1]; 10.0 mg/kg/day i.v. as 4-biphenylylacetic acid, day 15) was 8.2%, the “Inhibition (%)” value ([1]; 10.0 mg/kg/day i.v. as 4-biphenylylacetic acid, day 16) was 9.5% and the “Inhibition (%)” value ([1]; 10.0 mg/kg/day i.v. as 4-biphenylylacetic acid, day 17) was 17.9%. The “Inhibition (%)” value ([1]; 10.0 mg/kg/day i.v. as 4-biphenylylacetic acid, day 18) was 16.6%, the “Inhibition (%)” value ([1]; 10.0 mg/kg/day i.v. as 4-biphenylylacetic acid, day 21) was 1.3% and the “Inhibition (%)” value ([1]; 10.0 mg/kg/day i.v. as 4-biphenylylacetic acid, day 24) was -0.7%. The ED20 ([1]; Rattus norvegicus, iv, read-out: ED20 (dose required to cause a 20% inhibition of adjuvant-injected paw volume)) was 14.3 mg/kg, the “Inhibition (%)” value ([2]; 1.25 mg/kg i.v. as 4-biphenylylacetic acid, 2 h after carrageenin) was 6.6% and the “Inhibition (%)” value ([2]; 1.25 mg/kg i.v. as 4-biphenylylacetic acid, 3 h after carrageenin) was 0%. The “Inhibition (%)” value ([2]; 1.25 mg/kg i.v. as 4-biphenylylacetic acid, 4 h after carrageenin) was 8.5%, the “Inhibition (%)” value ([2]; 1.25 mg/kg i.v. as 4-biphenylylacetic acid, 5 h after carrageenin) was 5.2% and the “Inhibition (%)” value ([2]; 1.25 mg/kg i.v. as 4-biphenylylacetic acid, 6 h after carrageenin) was 6.1%. The “Inhibition (%)” value ([2]; 2.5 mg/kg i.v. as 4-biphenylylacetic acid, 2 h after carrageenin) was 19,7%, the “Inhibition (%)” value ([2]; 2.5 mg/kg i.v. as 4-biphenylylacetic acid, 3 h after carrageenin) was 11.7% and the “Inhibition (%)” value ([2]; 2.5 mg/kg i.v. as 4-biphenylylacetic acid, 4 h after carrageenin) was 18.6%. The “Inhibition (%)” value ([2]; 2.5 mg/kg i.v. as 4-biphenylylacetic acid, 5 h after carrageenin) was 20.7%, the “Inhibition (%)” value ([2]; 2.5 mg/kg i.v. as 4-biphenylylacetic acid, 6 h after carrageenin) was 10.2% and the “Inhibition (%)” value ([2]; 5.0 mg/kg i.v. as 4-biphenylylacetic acid, 2 h after carrageenin) was 9.8%. The “Inhibition (%)” value ([2]; 5.0 mg/kg i.v. as 4-biphenylylacetic acid, 3 h after carrageenin) was 6.6%, the “Inhibition (%)” value ([2]; 5.0 mg/kg i.v. as 4-biphenylylacetic acid, 4 h after carrageenin) was 20.3% and the “Inhibition (%)” value ([2]; 5.0 mg/kg i.v. as 4-biphenylylacetic acid, 5 h after carrageenin) was 19.0%. The “Inhibition (%)” value ([2]; 5.0 mg/kg i.v. as 4-biphenylylacetic acid, 6 h after carrageenin) was 30.6%, the “Inhibition (%)” value ([2]; 10.0 mg/kg i.v. as 4-biphenylylacetic acid, 2 h after carrageenin) was 23.0% and the “Inhibition (%)” value ([2]; 10.0 mg/kg i.v. as 4-biphenylylacetic acid, 3 h after carrageenin) was 28.3%. The “Inhibition (%)” value ([2]; 10.0 mg/kg i.v. as 4-biphenylylacetic acid, 4 h after carrageenin) was 35.6%, the “Inhibition (%)” value ([2]; 10.0 mg/kg i.v. as 4-biphenylylacetic acid, 5 h after carrageenin) was 29.3% and the “Inhibition (%)” value ([2]; 10.0 mg/kg i.v. as 4-biphenylylacetic acid, 6 h after carrageenin) was 30.6%. For the same molecule, the ED30 ([2]; Rattus norvegicus, iv, read-out: ED30 (dose required to cause a 30% inhibition of edema volume)) was 10.5 mg/kg, the “Findings: autopsy” value ([3]; 50 mg/kg i.v.) was “No change” and the “Findings: general symptoms” value ([3]; 50 mg/kg i.v.) was “No change”. For the same molecule, the “Number of the dead” value ([3]; 50 mg/kg i.v. as 4-biphenylylacetic acid) was 0/5, the “Findings: general symptoms (spontaneous motion)” value ([3]; 100 mg/kg i.v.) was “motion decreased” and the “Number of the dead” value ([3]; 100 mg/kg i.v. as 4-biphenylylacetic acid) was 0/5. The “Findings: general symptoms” value ([3]; 200 mg/kg i.v.) was “tarry feces”, the “Number of the dead” value ([3]; 200 mg/kg i.v. as 4-biphenylylacetic acid) was 3/5 and the “Number of the dead” value ([3]; 400 mg/kg i.v. as 4-biphenylylacetic acid) was 3/5. For the same molecule, the “Findings: autopsy” value ([3]; at least 100 mg/kg i.v.) was “Peptic ulcer occurred; also recorded: intestinal adherence”, the “Findings: general symptoms” value ([3]; at least 100 mg/kg i.v.) was “Body weight increase inhibition” and the “Findings: general symptoms” value ([3]; at least 200 mg/kg i.v.) was “pallor”. The “Doses at which changes occurred” value ([3]; rat, in vivo) was “more than 100 mg/kg”, the NOAEL at 72 h [4] was at least 50 mg/kg and the “Edema inhibitory effect (inhibition rate, %)” value ([5]; 2.5 mg/kg i.v. as 4-biphenylylacetic acid, 2 hours after carrageenin (time of dosing)) was 0%. For the same molecule, the “Edema inhibitory effect (inhibition rate, %)” value ([5]; 2.5 mg/kg i.v. as 4-biphenylylacetic acid, 3 hours after carrageenin) was 8.4%, the “Edema inhibitory effect (inhibition rate, %)” value ([5]; 2.5 mg/kg i.v. as 4-biphenylylacetic acid, 4 hours after carrageenin) was 13.2% and the “Edema inhibitory effect (inhibition rate, %)” value ([5]; 2.5 mg/kg i.v. as 4-biphenylylacetic acid, 5 hours after carrageenin) was 17.1%. For the same molecule, the “Edema inhibitory effect (inhibition rate, %)” value ([5]; 2.5 mg/kg i.v. as 4-biphenylylacetic acid, 6 hours after carrageenin) was 19.8%, the “Edema inhibitory effect (inhibition rate, %)” value ([5]; 5.0 mg/kg i.v. as 4-biphenylylacetic acid, 2 hours after carrageenin (time of dosing)) was 0% and the “Edema inhibitory effect (inhibition rate, %)” value ([5]; 5.0 mg/kg i.v. as 4-biphenylylacetic acid, 3 hours after carrageenin) was 9.5%. For the same molecule, the “Edema inhibitory effect (inhibition rate, %)” value ([5]; 5.0 mg/kg i.v. as 4-biphenylylacetic acid, 4 hours after carrageenin) was 15.1%, the “Edema inhibitory effect (inhibition rate, %)” value ([5]; 5.0 mg/kg i.v. as 4-biphenylylacetic acid, 5 hours after carrageenin) was 17.4% and the “Edema inhibitory effect (inhibition rate, %)” value ([5]; 5.0 mg/kg i.v. as 4-biphenylylacetic acid, 6 hours after carrageenin) was 20.8%. The ED20 ([5]; Rattus norvegicus, iv, 2 h, read-out: ED20 (20% edema inhibitory effect)) was 8.5 mg/kg and the “Edema inhibitive effect versus the micro-emulsions” value ([5]; i.v.) was “less effect”.
